Measurements from US3997506A (priority 1974, dated 1976).
Where two headings read alike, the source gives them in different places.

Tests used:
[1] = test system: phagocytosis by peritoneal macrophages of mice; format: cell-based; conditions: for % phagocytosis with respect to controls (= 100%): 80 min
Experimental: The macrophages the proliferation of which in the animal has been previously stimulated in vivo by an intraperitoneal injection of proteose-peptone (Difco) are collected or gathered in a sterile manner by washing the peritoneal cavity. They are then suspended in a culture medium consisting of a basal Eagle medium (B-D Merieux) admixed with 20 % of serum of foetal calf (Flow Laboratories) and with 100 U/ml of penicillin and of 50 μg/ml of streptomicin. They are distributed at the rate of 5×10^6 cells per dish into Petri Falcon dishes of 35 mm in diameter wherein they will form a monocellular layer. They are cultivated at 37° C in a water-saturated atmosphere of air and of 5 % carbon dioxide CO2.
For the measurement of phagocytosis 48 hours cultures (experiments I, II, IV) or 72 hours cultures (experiments II, V) have been used. […] The volume of methanol added to each culture was equal to 10 μl except for experiment I (25 μl).

[2] = General toxicity statement (LD50 and toxicity relative to thiocolchicine and colchicine); conditions: in vivo; of the weight of the body of animals
[3] = test system: animals; test: as above; conditions: in vivo
[4] = test system: viruses; test: Antiviral activity (statement); conditions: general statement
[5] = in vitro; conditions: human, leucocytes, % of dead cells (Average of 2 determinations), no PHA
Experimental: The concentrations of colchicine and of the derivative were prepared through dilution of a concentrated solution in order to add a same volume of methanol to each culture.
The doses were the following:
C1 = 0.01 μg/ml of culture
C2 = 0.1 μg/ml of culture
C3 = 0.5 μg/ml of culture
C4 = 1.0 μg/ml of culture
C5 = 2.5 μg/ml of culture
C6 = 10.0 μg/ml of culture.
Samples of culture with or without addition of methanol served as references.

[6] = test system: phagocytosis; conditions: literature, cited from earlier work
[7] = test system: mouse; conditions: intraperitoneal, literature; cited from earlier work
[8] = test system: man; conditions: may sometimes be of 6 mg only, literature; cited from earlier work
[9] = test system: rat; conditions: intravenous, literature; cited from earlier work
[10] = test system: cat; conditions: intravenous, literature; cited from earlier work

COc1cc2c(c(OC)c1OC)-c1ccc(SC)c(=O)cc1C(NC(=O)C13CC4CC(CC(C4)C1)C3)CC2 (single isomer, unassigned) [Derivative, N-desacetyl-N-adamantoyl-thiocolchicine]
inhibition of phagocytosis ([1]; 0.004 μg): 10% | % phagocytosis with respect to controls (= 100%) ([1]; 0.004 μg, Experimentation III): 93.8% | % phagocytosis with respect to controls (= 100%) ([1]; 0.004 μg, Experimentation IV): 85.8% | % phagocytosis with respect to controls (= 100%) ([1]; 0.04 μg, Experimentation III): 84.5% | % phagocytosis with respect to controls (= 100%) ([1]; 0.04 μg, Experimentation IV): 85.9% | % phagocytosis with respect to controls (= 100%) ([1]; 0.04 μg, Experimentation V): 89.9% | % phagocytosis with respect to controls (= 100%) ([1]; 0.4 μg, Experimentation III): 72.8% | % phagocytosis with respect to controls (= 100%) ([1]; 0.4 μg, Experimentation IV): 77.6% | % phagocytosis with respect to controls (= 100%) ([1]; 0.4 μg, Experimentation V): 76.2% | inhibition of phagocytosis ([1]; 4 μg): 65% | % phagocytosis with respect to controls (= 100%) ([1]; 4 μg, Experimentation II): 22.5% | % phagocytosis with respect to controls (= 100%) ([1]; 4 μg, Experimentation III): 33.1% | % phagocytosis with respect to controls (= 100%) ([1]; 4 μg, Experimentation IV): 42.5% | % phagocytosis with respect to controls (= 100%) ([1]; 4 μg, Experimentation V): 39.3% | % phagocytosis with respect to controls (= 100%) ([1]; 5 μg, Experimentation II): 25.9% | % phagocytosis with respect to controls (= 100%) ([1]; 10 μg, Experimentation II): 25.5% | % phagocytosis with respect to controls (= 100%) ([1]; 12.5 μg, Experimentation I): 46.2% | % phagocytosis with respect to controls (= 100%) ([1]; 20 μg, Experimentation II): 31.3% | % phagocytosis with respect to controls (= 100%) ([1]; 30 μg, Experimentation II): 31.1% | % phagocytosis with respect to controls (= 100%) ([1]; 40 μg, Experimentation II): 31.0% | % phagocytosis with respect to controls (= 100%) ([1]; 40 μg, Experimentation III): 43.7% | % phagocytosis with respect to controls (= 100%) ([1]; 40 μg, Experimentation IV): 48.4% | inhibition of phagocytosis of the red blood-corpuscles by the macrophages (in words) ([1]; compared with colchicine): will inhibit phagocytosis of the red blood-corpuscles by the macrophages nearly as colchicine would do | LD50 [2]: ~3000 mg/kg | high toxicity relative to colchicine [3]: about 3,000 times less than that of colchicine | toxicity relative to thiocolchicine [3]: 30 times less toxic than thiocolchicine | activity against viruses (in words) [4]: active against many viruses | cytotoxicity at 6 h ([5]; C1 = 0.01 μg/ml): 1% | cytotoxicity at 6 h ([5]; C2 = 0.1 μg/ml): 1% | cytotoxicity at 6 h ([5]; C3 = 0.5 μg/ml): 0% | cytotoxicity at 6 h ([5]; C4 = 1.0 μg/ml): 1% | cytotoxicity at 6 h ([5]; C5 = 2.5 μg/ml): 1% | cytotoxicity at 6 h ([5]; C6 = 10.0 μg/ml): 1% | cytotoxicity at 30 h ([5]; C1 = 0.01 μg/ml): 64% | cytotoxicity at 30 h ([5]; C2 = 0.1 μg/ml): 54% | cytotoxicity at 30 h ([5]; C3 = 0.5 μg/ml): 50% | cytotoxicity at 30 h ([5]; C4 = 1.0 μg/ml): 49% | cytotoxicity at 30 h ([5]; C5 = 2.5 μg/ml): 45% | cytotoxicity at 30 h ([5]; C6 = 10.0 μg/ml): 67% | cytotoxicity at 48 h ([5]; C1 = 0.01 μg/ml): 93% | cytotoxicity at 48 h ([5]; C2 = 0.1 μg/ml): 95% | cytotoxicity at 48 h ([5]; C3 = 0.5 μg/ml): 91% | cytotoxicity at 48 h ([5]; C4 = 1.0 μg/ml): 94% | cytotoxicity at 48 h ([5]; C5 = 2.5 μg/ml): 88% | cytotoxicity at 48 h ([5]; C6 = 10.0 μg/ml): 91%

COc1cc2c(c(OC)c1OC)-c1ccc(OC)c(=O)cc1[C@@H](NC(C)=O)CC2 [Colchicine, colchicine, reference compound]
inhibition of phagocytosis ([1]; 0.004 μg): 15% | % phagocytosis with respect to controls (= 100%) ([1]; 0.004 μg, Experimentation III): 87.6% | % phagocytosis with respect to controls (= 100%) ([1]; 0.004 μg, Experimentation IV): 81.6% | % phagocytosis with respect to controls (= 100%) ([1]; 0.04 μg, Experimentation III): 65% | % phagocytosis with respect to controls (= 100%) ([1]; 0.04 μg, Experimentation IV): 78.9% | % phagocytosis with respect to controls (= 100%) ([1]; 0.04 μg, Experimentation V): 79.5% | % phagocytosis with respect to controls (= 100%) ([1]; 0.4 μg, Experimentation III): 44.7% | % phagocytosis with respect to controls (= 100%) ([1]; 0.4 μg, Experimentation IV): 54.3% | % phagocytosis with respect to controls (= 100%) ([1]; 0.4 μg, Experimentation V): 54.4% | inhibition of phagocytosis ([1]; 4 μg): 65% | % phagocytosis with respect to controls (= 100%) ([1]; 4 μg, Experimentation II): 36.9% | % phagocytosis with respect to controls (= 100%) ([1]; 4 μg, Experimentation III): 34.5% | % phagocytosis with respect to controls (= 100%) ([1]; 4 μg, Experimentation IV): 32.2% | % phagocytosis with respect to controls (= 100%) ([1]; 4 μg, Experimentation V): 38.2% | % phagocytosis with respect to controls (= 100%) ([1]; 5 μg, Experimentation II): 30.3% | % phagocytosis with respect to controls (= 100%) ([1]; 10 μg, Experimentation II): 33.7% | % phagocytosis with respect to controls (= 100%) ([1]; 12.5 μg, Experimentation I): 36.5% | % phagocytosis with respect to controls (= 100%) ([1]; 20 μg, Experimentation II): 33.4% | % phagocytosis with respect to controls (= 100%) ([1]; 30 μg, Experimentation II): 36.2% | inhibition of phagocytosis ([1]; 40 μg): 67% | % phagocytosis with respect to controls (= 100%) ([1]; 40 μg, Experimentation II): 32.0% | % phagocytosis with respect to controls (= 100%) ([1]; 40 μg, Experimentation III): 33.2% | % phagocytosis with respect to controls (= 100%) ([1]; 40 μg, Experimentation IV): 33.8% | % phagocytosis ([6]; 0.004 μg of colchicine): 68.6 ± 3.7% | % phagocytosis ([6]; 0.04 μg of colchicine): 54.2 ± 5.4% | % phagocytosis ([6]; 0.4 μg of colchicine): 39.8 ± 1.2% | cytotoxicity at 6 h ([5]; C1 = 0.01 μg/ml): 1% | cytotoxicity at 6 h ([5]; C2 = 0.1 μg/ml): 0% | cytotoxicity at 6 h ([5]; C3 = 0.5 μg/ml): 2% | cytotoxicity at 6 h ([5]; C4 = 1.0 μg/ml): 1% | cytotoxicity at 6 h ([5]; C5 = 2.5 μg/ml): 1% | cytotoxicity at 6 h ([5]; C6 = 10.0 μg/ml): 1% | cytotoxicity at 30 h ([5]; C1 = 0.01 μg/ml): 55% | cytotoxicity at 30 h ([5]; C2 = 0.1 μg/ml): 68% | cytotoxicity at 30 h ([5]; C3 = 0.5 μg/ml): 54% | cytotoxicity at 30 h ([5]; C4 = 1.0 μg/ml): 59% | cytotoxicity at 30 h ([5]; C5 = 2.5 μg/ml): 60% | cytotoxicity at 30 h ([5]; C6 = 10.0 μg/ml): 46% | cytotoxicity at 48 h ([5]; C1 = 0.01 μg/ml): 93% | cytotoxicity at 48 h ([5]; C2 = 0.1 μg/ml): 93% | cytotoxicity at 48 h ([5]; C3 = 0.5 μg/ml): 91% | cytotoxicity at 48 h ([5]; C4 = 1.0 μg/ml): 95% | cytotoxicity at 48 h ([5]; C5 = 2.5 μg/ml): 92% | cytotoxicity at 48 h ([5]; C6 = 10.0 μg/ml): 92% | LD50 [7]: 1 mg/kg | lethal dose [8]: 6 mg | LD50 [9]: 1.7 mg/kg | LD50 [10]: 0.25 mg/kg
